Measurements: patent publication US9149540B2, “Polymer conjugate of folic acid or folic acid derivative” (Nippon Kayaku Kabushiki Kaisha, priority 2008, dated 2015)
Where “and” joins values, the source holds several entries; their conditions need not be identical. Identical values can stand only once.

How the values were obtained:
[1] = system: rat collagen-induced arthritis model; test: Anti-inflammatory evaluation using rat collagen-induced arthritis model (Test Example 3)
[2] = system: rat collagen-induced arthritis model; test: Anti-inflammatory evaluation 2 using rat collagen-induced arthritis model (Test Example 4); assay type: in vivo; details: 8th, 15th and 22nd day after sensitization
Protocol: The test was carried out in the same manner as in Test Example 3. […] The groups administered with 1.00 mg/kg (convert to dose of MTX) and 1.25 mg/kg (convert to dose of MTX) of MTX_G-40, and the group administered with 2.5 mg/kg of MTX were administered with the drug through the tail vein on the 1st day, 8th day, 15th day and 22nd day after sensitization.

[3] = system: Mouse colon cancer Colon 26; test: Antitumor effect on mouse colon cancer Colon 26-transplanted mouse; assay type: in vivo; details: for Relative tumor volume mean ± SD: 12th day after initiation of administration, day of initiation = 1.0; for suppression of tumor growth (in words) / dose dependence of tumor growth suppression (in words): single administration; for dose dependence of tumor growth suppression (in words): doses of Table 1
Protocol: Mouse colon cancer Colon 26 cells subcutaneously subcultured in a BALB/c mouse were prepared in the form of a block which measured about 2 mm on each side, and the block was subcutaneously transplanted on the dorsal part of a CDF1 mouse using a trocar. […] The tumor volume on the day of initiation of administration was taken as 1.0, and while taking the 12th day after the initiation of administration as the day of determination, the relative tumor volume of each administered group was determined. The dose in the compounds of the present invention is converted to that of MTX.

[4] = 15 mg/kg/day tail vein, 5 successive days (total 75 mg/kg)
[5] = once 25 mg/kg in terms of MTX, tail vein
[6] = once 25 mg/kg in terms of MTX, tail vein, 25 mg/kg
[7] = once 50 mg/kg in terms of MTX, tail vein

For `CN(Cc1cnc2nc(N)nc(N)c2n1)c1ccc(C(=O)N[C@@H](CCC(=O)O)C(=O)O)cc1` [MTX, methotrexate, reference compound], the “anti-inflammatory effect, arthritis score of left footpad (FIG. 2)” value ([1]; 2.5 mg/kg tail vein on 1st and 8th day after sensitization) was “no anti-inflammatory effects were observed”, the “anti-inflammatory effect, arthritis score of left footpad (FIG. 3)” value (“anti-inflammatory effect … (FIG. 3)” below) ([2]; 2.5 mg/kg tail vein on 1st) was “delayed the time of onset of inflammation as compared with the control group” and the “antitumor effect (in words)” value ([3]; 15 mg/kg for 5 successive days) was “an antitumor effect was not observed”. The “Toxicity (death/n)” value [3, 4] was 0/3, the “Relative tumor volume mean ± SD” value [3, 4] was 12.2 and 12.2 ± 8.1 and the “death of toxicity (in words)” value ([3]; 20 mg/kg for 5 successive days) was “all of the animals died of toxicity”. The “Toxicity (death/n)” value ([3]; 20 mg/kg/day tail vein, 5 successive days (total 100 mg/kg)) was 3/3.

In the case of PEG-Asp44(γ-Tyramine-MTX)-Ac [MTX_G-44], the “Toxicity (death/n)” value ([3]; once 12.5 mg/kg in terms of MTX, tail vein) is reported as 0/3, the “Relative tumor volume mean ± SD” value ([3]; once 12.5 mg/kg in terms of MTX, tail vein, 12.5 mg/kg) is reported as 8.2 and 8.2 ± 1.0 and the “death of toxicity (in words)” value ([3]; once 25 mg/kg in terms of MTX) is reported as “one animal died of toxicity”. The “Toxicity (death/n)” value [3, 5] was 1/3, the “Relative tumor volume mean ± SD” value [3, 6] was 2.3 and 2.3 ± 1.1 and the “Toxicity (death/n)” value [3, 7] was 1/3. For the same compound, the “Relative tumor volume mean ± SD” value [3, 7] was 0.4 ± 0.1, the “suppression of tumor growth (in words)” value [3] was “strongly suppress the growth of tumor with a single administration” and the “dose dependence of tumor growth suppression (in words)” value [3] was “tumor growth is suppressed in a manner dependent on the amount of administration”.

For PEG-Asp40(α-Tyramine-MTX)-Ac [MTX_A-40], the “anti-inflammatory effect, arthritis score of left footpad (FIG. 2)” value ([1]; 2.5 mg/kg on 1st day, or 1.25 mg/kg on 1st and 8th day after sensitization, in terms of MTX, tail vein) was “delayed the time of onset of inflammation”, the “Toxicity (death/n)” value [3, 5] was 0/3 and the “Relative tumor volume mean ± SD” value [3, 6] was 6.8 and 6.8 ± 0.7. For the same compound, the “death of toxicity (in words)” value ([3]; once 50 mg/kg in terms of MTX) was “one animal died of toxicity”, the “Toxicity (death/n)” value [3, 7] was 1/3 and the “Relative tumor volume mean ± SD” value ([3]; once 50 mg/kg in terms of MTX, tail vein, 50 mg/kg) was 4.8 and 4.8 ± 2.8. The “suppression of tumor growth (in words)” value [3] was “strongly suppress the growth of tumor with a single administration” and the “dose dependence of tumor growth suppression (in words)” value [3] was “tumor growth is suppressed in a manner dependent on the amount of administration”.

With PEG-Asp40(γ-Tyramine-MTX)-Ac [MTX_G-40] the “anti-inflammatory effect … (FIG. 3)” value ([2]; 1.00 mg/kg (dose of MTX) tail vein on 1st) was “further delayed the time of onset of inflammation compared to MTX” and the “anti-inflammatory effect … (FIG. 3)” value ([2]; 1.25 mg/kg (dose of MTX) tail vein on 1st) was “completely suppressed the onset of inflammation for the 28 days of monitoring”.
